US20040029823A1, “Antisense oligonucleotide compositions and methods for the modulation of JNK proteins” (priority 1997, published 2004)
Where “and” joins values, the source holds several entries; their conditions need not be identical. Equal entries are not always repeated. Where two headings read alike, the source gives them in different places. e = 2'-O-(2-methoxyethyl) (MOE); [5mC] = 5-methylcytosine; d = 2'-deoxy (DNA)

Key:
JNK1 mRNA = assay: Northern assay of JNK1 mRNA expression in A549 cells; assay type: cell-based, human; conditions: for Normalized % Control / RNA % Control: JNK1 mRNA; for Normalized % Control: chemically modified oligonucleotides; for RNA % Control: 300 nM for 20 hours then 200 nM for 4 hours
Method: (§1) In order to evaluate the activity of potential JNK-modulating oligonucleotides, human lung carcinoma cell line A549 (American Type Culture Collection, Rockville, Md. No. ATCC CCL-185) cells or other cell lines as indicated in the Examples, were grown and treated with oligonucleotides or control solutions as detailed below. After harvesting, cellular extracts were prepared and examined for specific JNK mRNA levels or JNK protein levels (i.e., Northern or Western assays, respectively). In all cases, “% expression” refers to the amount of JNK-specific signal in an oligonucleotide-treated cell relative to an untreated cell (or a cell treated with a control solution that lacks oligonucleotide), and “% inhibition” is calculated as
100%−% Expression =% Inhibition.
Northern Assays: The mRNA expression of each JNK protein was determined by using a nucleic acid probe specifically hybridizable thereto. Nucleic acid probes specific for JNK1, JNK2 and JNK3 are described in Examples 3, 4 and 5, respectively. The probes were radiolabelled by means well known in the art (see, e.g., Short Protocols in Molecular Biology, 2nd Ed., Ausubel et al., Eds., John Wiley & Sons, New York, 1992, pages 3-11 to 2-3-44 and 4-17 to 4-18; Ruth, Chapter 6 In: Methods in Molecular Biology, Vol. 26: Protocols for Oligonucleotide Conjugates, Agrawal, ed., Humana Press Inc., Totowa, N.J., 1994, pages 167-185; and Chapter 10 In: Molecular Cloning: A Laboratory Manual, 2nd Ed., Sambrook et al., Eds., pages 10.1-10.70). The blots were stripped and reprobed with a ^32P-labeled glyceraldehyde 3-phosphate dehydrogenase (G3PDH) probe (Clontech Laboratories, Inc., Palo Alto, Calif.) in order to confirm equal loading of RNA and to allow the levels of JNK transcripts to be normalized with regard to the G3PDH signals.
A549 cells were grown in T-75 flasks until 80-90% confluent. At this time, the cells were washed twice with 10 mL of media (DMEM), followed by the addition of 5 mL of DMEM containing 20 μg/mL of LIPOFECTIN™ (i.e., 1:1 (w/w) DOTMA/DOPE, Life Technologies, Gaithersburg, Md.; DOTMA=N-[1-(2,3-dioleyoxy)propyl]-N,N,N-trimethylammonium chloride; DOPE=dioleoyl phosphatidylethanolamine). The oligonucleotides were added from a 10 μM stock solution to a final concentration of 400 nM, and the two solutions were mixed by swirling the flasks. As a control, cells were treated with LIPOFECTIN™ without oligonucleotide under the same conditions and for the same times as the oligonucleotide-treated samples. After 4 hours at 37° C., the medium was replaced with fresh DMEM containing 10% serum. The cells were allowed to recover for 18 hours. Total cellular RNA was then extracted in guanidinium, subject to gel electrophoresis and transferred to a filter according to techniques known in the art (see, e.g., Chapter 7 In: Molecular Cloning: A Laboratory Manual, 2nd Ed., Sambrook et al., Eds., pages 7.1-7.87, and Short Protocols in Molecular Biology, 2nd Ed., Ausubel et al., Eds., John Wiley & Sons, New York, 1992, pages 2-24 to 2-30 and 4-14 to 4-29). Filters were typically hybridized overnight to a probe specific for the particular JNK gene of interest in hybridization buffer (25 mM KPO4, pH 7.4; 5×SSC; 5× Denhardt's solution, 100 μg/ml Salmon sperm DNA and 50% formamide) (Alahari et al., Nucl. Acids Res., 1993, 21, 4079). This was followed by two washes with 1×SSC, 0.1% SDS and two washes with 0.25×SSC, 0.1% SDS. Hybridizing bands were visualized by exposure to X-OMAT AR film and quantitated using a PHOSPHORIMAGER™ essentially according to the manufacturer's instructions (Molecular Dynamics, Sunnyvale, Calif.)
B. JNK1-specific probes: In initial screenings of a set of oligonucleotides derived from the JNK1 sequence (Table 2) for biological activity, a cDNA clone of JNK1 (Derijard et al., Cell, 1994, 76, 1025) was radiolabeled and used as a JNK1-specific probe in Northern blots. […]

MDA-MB-231 tumors = assay: MDA-MB-231 human breast adenocarcinoma tumors in nude mice; assay type: in vivo; conditions: MDA-MB-231 tumors, 25 mg/kg intravenous once daily
Excerpt: Approximately 5×10^6 breast adenocarcinoma cells (cell line MDA-MB-231; American Type Culture Collection, Richmond, Va., No. ATCC HTB-26) were implanted subcutaneously in the right inner thigh of nude mice (n=6 for each of three sets of mice). Oligonucleotides ISIS 15346 (JNK1, SEQ ID NO: 16) and 15353 (JNK2, SEQ ID NO: 31) were suspended in saline and administered once daily to two sets of mice on the first day the tumor volume was about […]. A saline-only (0.9% NaCl) solution was given to a third set of animals as a control. Oligonucleotides were given by intravenous injection at a dosage of 25 mg/kg. Tumor size was measured and tumor volume was calculated on days 12, 19, 26 and 33 following tumor cell inoculation.

JNK1 protein = assay: Western assay of JNK1 protein levels in A549 cells; assay type: cell-based, human; conditions: 300 nM for 20 hours then 200 nM for 4 hours
Method: as §1
Western Assays: A549 cells were grown and treated with oligonucleotides as described above. Cells were lysed, and protein extracts were electrophoresed (SDS-PAGE) and transferred to nitrocellulose filters by means known in the art (see, e.g., Chapter 18 In: Molecular Cloning: A Laboratory Manual, 2nd Ed., Sambrook et al., Eds., pages 18.34, 18.47-18.54 and 18.60-18.75)). The amount of each JNK protein was determined by using a primary antibody that specifically recognizes the appropriate JNK protein. The primary antibodies specific for each JNK protein are described in the appropriate Examples. The primary antibodies were detected by means well known in the art (see, e.g., Short Protocols in Molecular Biology, 2nd Ed., Ausubel et al., Eds., John Wiley & Sons, New York, 1992, pages 10-33 to 10-35; and Chapter 18 In: Molecular Cloning: A Laboratory Manual, 2nd Ed., Sambrook et al., Eds., pages 18.1-18.75 and 18.86-18.88) and quantitated using a PHOSPHORIMAGER™ essentially according to the manufacturer's instructions (Molecular Dynamics, Sunnyvale, Calif.).
F. Western Assays: In order to assess the effect of oligonucleotides targeted to JNK1 mRNAs on JNK1 protein levels, Western assays were performed essentially as described above in Example 2, with the following exception(s) and/or modification(s). A primary antibody that specifically binds to JNK1 (catalog No. sc-474-G) was purchased from Santa Cruz Biotechnology, Inc. (Santa Cruz, Calif.; other JNK1-specific antibodies are available from StressGen Biotechnologies, Inc., Victoria, BC, Canada; and Research Diagnostics, Inc., Flanders, N.J.). In this experiment, cells were grown and treated with oligonucleotide at 300 nM for the initial 20 hours and then at 200 nM for 4 hours. At t=48 h, aliquots were removed for Northern and Western analyses, and fresh media was added to the cells. Aliquots for analysis were also taken at t=72 h. The samples from t=48 h and t=72 h were analyzed using the Northern and Western assays described above.

HUVEC = assay: Apoptosis in HUVEC (percent hypodiploid cells, flow cytometry); assay type: cell-based, human

Q: How did the “Normalized % Control” value (JNK1 mRNA; dose 100 nM) turn out when “15346 (antisense CTCTCTGTAGGCCCGCTTGG; sugars from the 5' end e5 d9 e6, [5mC] at 1, 3, 5, 16, all phosphorothioate, methylation of C not given here) [compound 15346]” was run?
A: 22.6%

Q: What about the “Normalized % Control” value (JNK1 mRNA; dose 400 nM) of the same substance?
A: 11.0%

Q: And the “RNA % Control” value (JNK1 mRNA; t = 48 h)?
A: 4.3%

Q: And the “RNA % Control” value (JNK1 mRNA; t = 72 h)?
A: 10.6%

Q: What about the “inhibition of JNK1 mRNA expression” value (JNK1 mRNA; chemically modified derivatives of ISIS 12539, 400 nM (Table 5)) of the same substance?
A: at least 88%

Q: What about the “tumor growth compared to the saline control” value (MDA-MB-231 tumors) of the same substance?
A: inhibited tumor growth

Q: What about the “Protein % Control” value (JNK1 protein; t = 48 h) of the same substance?
A: 42.7%

Q: And the “Protein % Control” value (JNK1 protein; t = 72 h)?
A: 25.7%

Q: How did the “percent hypodiploid cells (a measure of apoptosis)” value (HUVEC) turn out when “CTTTCCGTTGGACCCCTGGG (phosphorothioate, 2'-MOE gapmer, further chemistry not given here) [ISIS 18076, scrambled control for ISIS 15346; 2′-methoxyethoxy gapmer, phosphorothioate throughout, reference compound]” was run?
A: 8% and 10% and 11%

Q: Which results are given for “C^ST^SC^ST^SC^ST^SG^ST^SA^SG^SG^SC^SC^SC^SG^SC^ST^ST^SG^SG (antisense CTCTCTGTAGGCCCGCTTGG; DNA, all phosphorothioate, methylation of C not given here) [ISIS 15346, JNK1 gapmer: P═S, 2′-MOE wings; P═S, 2′-deoxy core]”?
A: percent hypodiploid cells (a measure of apoptosis) (HUVEC; HUVEC, Oligo + Cyclohexamide): 8%; percent hypodiploid cells (a measure of apoptosis) (HUVEC; HUVEC, Oligo + TNFa (10 ng/ml)): 14%; percent hypodiploid cells (a measure of apoptosis) (HUVEC; HUVEC, Oligo + z-VAD.fmk): 5%; percent hypodiploid cells (a measure of apoptosis) (HUVEC; HUVEC, Oligo alone): 13%

Q: For “GTGCGCGCGAGCCCGAAATC (phosphorothioate, 2'-MOE gapmer, further chemistry not given here) [ISIS 18078, scrambled control for ISIS 15353; 2′-methoxyethoxy gapmer, phosphorothioate throughout, reference compound]”, which “percent hypodiploid cells (a measure of apoptosis)” value (HUVEC) is on record?
A: 11% and 12% and 9%
